Holding throughout (type): cell-based
The test system of assay [1] is SW480 colon cancer cells. Put plainly: Cell viability assay (CellTiter-Blue). Particulars: Homo sapiens; for EC50: 96 h, SW480 cell viability, four days; for inhibition at 10 µM: SW480, 96 h, read-out: percent inhibition at 10 μM. Here is the method: Representative compounds were screened using the following assay procedure to assess the effect on cell viability as described below.
Approximately 2×10^3 SW480 colon cancer cells were seeded into each well and allowed to incubate in the presence or absence of compound for four days at 37° C./5% CO2. Eight replicates of DMSO-treated cells served as controls and cells treated with compound were performed in duplicate.
After incubation, 20 μL of CellTiter-Blue (Promega) was added to each well allowed to incubate for approximately 3 hours. This reagent was a buffered solution which contains resazurin, metabolically active cells were able to reduce rezarurin (blue) into resorufin (pink) which was highly fluorescent. This measured fluorescence was used as a readout for cell viability.

Assay [2] has as its system Wnt activity (Sp5-Luc reporter, SW480 colon carcinoma cells). Put plainly: Wnt activity screening assay, Sp5-Luc reporter gene in SW480 cells. Particulars: Homo sapiens; for inhibition at 10 µM: SW480, read-out: percent inhibition at 10 μM; for EC50: Sp5-Luc reporter, SW480 cells, overnight incubation. An excerpt: The screening assay for Wnt activity is described as follows. Reporter cell lines can be generated by stably transducing cancer cell lines (e.g., colon cancer) or primary cells (e.g., IEC-6 intestinal cells) with a lentiviral construct that includes a Wnt-responsive promoter driving expression of the firefly luciferase gene.
SW480 colon carcinoma cells were transduced with a lentiviral vector expressing luciferase with a human Sp5 promoter consisting of a sequence of eight TCF/LEF binding sites. SW480 cells stably expressing the Sp5-Luc reporter gene and a hygromycin resistance gene were selected by treatment with 150 μg/mL of hygromycin for 7 days. These stably transduced SW480 cells were expanded in cell culture and used for all further screening activities. […] For Sp5-Luc reporter gene assays, the cells were plated at 4,000 cells/well in 384-well plates with medium containing 1% fetal bovine serum and incubated overnight at 37° C. and 5% CO2. Following incubation, 20 μl of BrightGlo luminescence reagent (Promega) was added to each well of the 384-well assay plates. The plates were placed on an orbital shaker for 2 min and then luminescence was quantified using the Envision (Perkin Elmer) plate reader. Readings were normalized to DMSO only treated cells, and normalized activities were utilized for EC50 calculations using the dose-response log (inhibitor) vs. response−variable slope (four parameters) nonlinear regression feature available in GraphPad Prism 5.0 (or Dotmatics).
On the technique in general: In a reporter assay the amount or activity of a reporter protein is the signal.

Assay [3] has as its system IL-6. Put plainly: IL-6 inhibition in LPS-stimulated THP-1 cells (HTRF). The following applies: Homo sapiens; for inhibition at 10 µM: THP-1, read-out: percent inhibition at 10 μM; for EC50: THP-1 cells, LPS 500 ng/mL, 22 hours, IL6 HTRF. As for the experimental part: THP-1 cells were cultured in basal media with 1% FBS for 24 hours before the start of the assay. […] THP-1 cells were plated at 5000 cells/well in the 384-well plates and incubated at 37° C. for 2 h. 500 ng/mL of LPS was added after 2 hours and cells were incubated for another 22 hours at 37° C. Plates were spun in a centrifuge for 1 minute at […] and a mixture of anti-IL6 XL665, and anti-IL6 Cryptate diluted in reconstitution buffer (Cisbio Inc.) was added to each well. Following incubation for 3 hrs at room temperature, Homogeneous Time-Resolved Fluorescence (HTRF) was measured using the Envision (Perkin Elmer) at 665 nm and […]. The ratio of fluorescence at 665 nm to 620 nm was used as a readout for IL6 quantification. All samples were processed in duplicate. Readings were normalized to DMSO treated cells and normalized activities were utilized for EC50 calculations using the dose-response log (inhibitor) vs. response−variable slope (four parameters) nonlinear regression feature available in GraphPad Prism 5.0 (or Dotmatics).
(TR-FRET usually uses a lanthanide donor and a delayed reading to cut background.)

For assay [4], the system named is primary human fibroblasts derived from IPF patients (LL29 cells). Put plainly: Inhibition of fibrotic process, αSMA staining in TGF-β1 treated fibroblasts. Particulars: Fibroblast; for EC50: 96 h, LL29 cells, TGF-β1 20 ng/mL, 4 days, % αSMA positive cells; for inhibition at 10 µM: read-out: percent inhibition at 10 μM. Here is the method:
Representative compounds were screened using primary human fibroblasts (derived from IPF patients) treated with TGF-β1 to determine their ability to inhibit the fibrotic process.
LL29 cells are plated at 1,500 cells/well in 80 μL/well F12 medium supplemented with 1% Fetal Bovine Serum. […] Wells treated with TGF-31 and containing DMSO were used as controls. […] Following incubation for 4 days, SYTOX green nucleic acid stain (Life Technologies [Thermo Fisher Scientific]) was added to the wells at a final concentration of 1 μM and incubated at room temperature for 30 min.

A value given as a limit tells only on which side of the number the result lay.

For 14 molecules, EC50 and inhibition results are on record in patent publication US20180221352A1, “3-(1H-PYRROLO[2,3-C]PYRIDIN-2-YL)-1H-PYRAZOLO[3,4-B]PYRIDINES AND THERAPEUTIC USES THEREOF” (Samumed, LLC, priority 2015, published 2018).

As to `O=C(Nc1cncc(-c2cnc3[nH]nc(-c4cc5c(N6CCCCC6)cncc5[nH]4)c3c2)c1)c1ccccc1` [Compound 179, N-(5-(3-(4-(Piperidin-1-yl)-1H-pyrrolo[2,3-c]pyridin-2-yl)-1H-pyrazolo[3,4-b]pyridin-5-yl)pyridin-3-yl)benzamide], the EC50 – broadly, the concentration that produces a half-maximal response – was 3.84 µM in assay [1], > 10 µM in assay [2], > 10 µM in assay [3] and 4.59 µM in assay [4]. Moreover, the inhibition (usually the percentage by which the read-out fell short of the control) at 10 µM was found to be 45.1% in assay [2] and 36.1% in assay [3].

Regarding `c1ncc(-c2cnc3[nH]nc(-c4cc5c(N6CCCCC6)cncc5[nH]4)c3c2)cc1CN1CCCCC1` [Compound 183, 3-(4-(Piperidin-1-yl)-1H-pyrrolo[2,3-c]pyridin-2-yl)-5-(5-(piperidin-1-ylmethyl)pyridin-3-yl)-1H-pyrazolo[3,4-b]pyridine], the concentration for a half-maximal effect (EC50) was 3.17 µM in assay [1], 4.98 µM in assay [2], > 10 µM in assay [3] and 2.4 µM in assay [4]. Further, the inhibition at 10 µM in assay [3] came to 20.3%.

In the case of `O=C(Nc1cncc(-c2cnc3[nH]nc(-c4cc5c(N6CCCCC6)cncc5[nH]4)c3c2)c1)C1CCCCC1` [Compound 191, N-(5-(3-(4-(Piperidin-1-yl)-1H-pyrrolo[2,3-c]pyridin-2-yl)-1H-pyrazolo[3,4-b]pyridin-5-yl)pyridin-3-yl)cyclohexanecarboxamide], the EC50 in assay [1] stood at 4.09 µM; in assay [2], 9.12 µM; in assay [3] it was 6.43 µM; in assay [4], 5.63 µM.

On to `CCNCc1cncc(-c2cnc3[nH]nc(-c4cc5ccncc5[nH]4)c3c2)c1` [Compound 258, N-((5-(3-(1H-Pyrrolo[2,3-c]pyridin-2-yl)-1H-pyrazolo[3,4-b]pyridin-5-yl)pyridin-3-yl)methyl)ethanamine], for which the half-maximal effective concentration (EC50) in assay [1] is 3.32 µM; in assay [2], 9.34 µM; in assay [3], 1.55 µM; in assay [4], 7.43 µM.

In the case of `c1ccc(-c2cnc3[nH]nc(-c4cc5ccncc5[nH]4)c3c2)nc1` [Compound 280, 5-(Pyridin-2-yl)-3-(1H-pyrrolo[2,3-c]pyridin-2-yl)-1H-pyrazolo[3,4-b]pyridine], the concentration giving a half-maximal response (EC50) amounted to 1.15 µM in assay [1], 3.87 µM in assay [2], 3.75 µM in assay [3] and 1.59 µM in assay [4].

Turning to `CC(C)C(=O)Nc1cncc(-c2cnc3[nH]nc(-c4cc5c(-c6ccoc6)cncc5[nH]4)c3c2)c1` [Compound 317, N-(5-(3-(4-(Furan-3-yl)-1H-pyrrolo[2,3-c]pyridin-2-yl)-1H-pyrazolo[3,4-b]pyridin-5-yl)pyridin-3-yl)isobutyramide], the concentration giving a half-maximal response (EC50) in assay [1] is 9.97 µM; in assay [2] it was 3.62 µM; in assay [3], 2.08 µM; in assay [4], 1.69 µM.

On to `CN(C)Cc1cncc(-c2cnc3[nH]nc(-c4cc5c(-c6ccoc6)cncc5[nH]4)c3c2)c1` [Compound 321, 1-(5-(3-(4-(Furan-3-yl)-1H-pyrrolo[2,3-c]pyridin-2-yl)-1H-pyrazolo[3,4-b]pyridin-5-yl)pyridin-3-yl)-N,N-dimethylmethanamine], for which the concentration giving a half-maximal response (EC50) in assay [1] was 6.29 µM; in assay [2] it was > 10 µM; in assay [3], > 10 µM; in assay [4], > 10 µM. Also, the inhibition at 10 µM in assay [2] was determined as 15.4%; in assay [3], 29.2%; in assay [4], 41.1%.

On to `CC(C)(C)CC(=O)Nc1cncc(-c2cnc3[nH]nc(-c4cc5c(-c6ccoc6)cncc5[nH]4)c3c2)c1` [Compound 324, N-(5-(3-(4-(Furan-3-yl)-1H-pyrrolo[2,3-c]pyridin-2-yl)-1H-pyrazolo[3,4-b]pyridin-5-yl)pyridin-3-yl)-3,3-dimethylbutanamide], for which the EC50 in assay [1] is 7 µM; in assay [2] it was 3.73 µM; in assay [3], 0.437 µM; in assay [4], 0.874 µM.

Regarding `c1ncc(-c2cnc3[nH]nc(-c4cc5c(-c6ccoc6)cncc5[nH]4)c3c2)cn1` [Compound 335, 3-(4-(Furan-3-yl)-1H-pyrrolo[2,3-c]pyridin-2-yl)-5-(pyrimidin-5-yl)-1H-pyrazolo[3,4-b]pyridine], the EC50 is > 10 µM in assay [1], > 10 µM in assay [2], 2.52 µM in assay [3] and 4.77 µM in assay [4]. Also, the inhibition at 10 µM amounted to 47% in assay [1] and 24.9% in assay [2].

Take `CS(=O)(=O)NCc1cc(F)cc(-c2cncc3[nH]c(-c4n[nH]c5ncc(-c6cncc(CN7CCCC7)c6)cc45)cc23)c1` [Compound 490, N-(3-Fluoro-5-(2-(5-(5-(pyrrolidin-1-ylmethyl)pyridin-3-yl)-1H-pyrazolo [3,4-b]pyridin-3-yl)-1H-pyrrolo[2,3-c]pyridin-4-yl)benzyl)methanesulfonamide]: the concentration for a half-maximal effect (EC50) was > 10 µM in assay [1], > 10 µM in assay [2], 0.325 µM in assay [3] and > 10 µM in assay [4]. Also, the inhibition at 10 µM in assay [1] was 9.7%; in assay [2] it was 24%; in assay [4], 16.2%.

With `CS(=O)(=O)NCc1cc(F)cc(-c2cncc3[nH]c(-c4n[nH]c5ncc(-c6cncc(NC(=O)C7CCCCC7)c6)cc45)cc23)c1` [Compound 499, N-(5-(3-(4-(3-Fluoro-5-(methylsulfonamidomethyl)phenyl)-1H-pyrrolo[2,3-c]pyridin-2-yl)-1H-pyrazolo[3,4-b]pyridin-5-yl)pyridin-3-yl)cyclohexanecarboxamide], the EC50 in assay [1], in assay [2], in assay [3] and in assay [4] was > 10 µM throughout. In addition, the inhibition at 10 µM in assay [1] is 9.9%; in assay [2] it was 12.3%; in assay [3], 32.4%; in assay [4], 28.5%.

With `Fc1cccc(-c2cncc3[nH]c(-c4n[nH]c5ncc(C6CCNCC6)cc45)cc23)c1` [Compound 505, 3-(4-(3-Fluorophenyl)-1H-pyrrolo[2,3-c]pyridin-2-yl)-5-(piperidin-4-yl)-1H-pyrazolo[3,4-b]pyridine], the EC50 in assay [1] is > 10 µM; in assay [2] it was > 10 µM; in assay [3] it was 4.09 µM; in assay [4], > 10 µM. For the same molecule, the inhibition at 10 µM in assay [1] worked out at 7%; in assay [2], 17.5%; in assay [4], 0%.

`Fc1ccc(-c2cncc3[nH]c(-c4n[nH]c5ncc(-c6cncc(OC7CCCCC7)c6)cc45)cc23)cc1` [Compound 527, 5-(5-(Cyclohexyloxy)pyridin-3-yl)-3-(4-(4-fluorophenyl)-1H-pyrrolo[2,3-c]pyridin-2-yl)-1H-pyrazolo[3,4-b]pyridine]: the EC50 in assay [1] is 2.6 µM; in assay [2], 7.28 µM; in assay [3], > 10 µM; in assay [4], 4.35 µM. Moreover, the inhibition at 10 µM in assay [3] is 21.7%.

Regarding `O=C(CC1CCNCC1)Nc1cncc(-c2cnc3[nH]nc(-c4cc5c(-c6cccnc6)cncc5[nH]4)c3c2)c1` [Compound 561, 2-(Piperidin-4-yl)-N-(5-(3-(4-(pyridin-3-yl)-1H-pyrrolo[2,3-c]pyridin-2-yl)-1H-pyrazolo[3,4-b]pyridin-5-yl)pyridin-3-yl)acetamide], the EC50 in assay [1] was > 10 µM; in assay [2], > 10 µM; in assay [3] it was > 10 µM; in assay [4], 2.2 µM. Also, the inhibition at 10 µM in assay [1] was 4.4%; in assay [2] it was 0%; in assay [3], 14.5%.
